Here are results for 9 compounds from patent US9186361B2, “Compounds and compositions for the treatment of parasitic diseases” (Novartis AG, priority 2013, dated 2015).

For orientation: EC50 means the concentration at which the effect is half-maximal.

What all share (type): cell-based
For assay [1], the system named is L. donovani HU3 strain in mouse peritoneal macrophages. Briefly: Proliferation of L. donovani in mouse peritoneal macrophages (SybrGreen, high-content imaging). Particulars: Leishmania donovani, Peritoneal macrophage, 120 h; infected mouse peritoneal macrophages, 5 days; read-out: L. donavani Macrophage EC50. An excerpt: The activity of a compound according to the present invention for inhibition of parasitemai can be assessed by the parasite proliferation assay. The assay measures the increase in the parasite number in the assayed plate well using a DNA intercalating dye, SYBR Green I® dye (INVITROGEN) to stain Leishmania cell nuclei. It is understood that the assays illustrate the invention without in any way limiting the scope of the invention.
L. donovani HU3 strain is propagated by infecting BALBc mice through tail vein injection with 10^7 Leishmania parasites. Infected mice are allowed to develop infection during 9-11 weeks post-infection. During this time, the parasites accumulate in the infected mouse spleens to large numbers, and the infected mice serve as the source of parasites for the in vitro measurement of compound efficacies. To assay a compound for anti-leishmanial activity, peritoneal macrophages isolated from non-infected BALBc mice are seeded into 384-well plates at density 2×10^4 macrophages per well in 25 mL of medium (RPMI1640, 10% fetal serum albumin, 10 mM HEPES, 1 mM sodium pyruvate, 1% Pen/Strep). Subsequently, the seeded plates are placed into an incubator set to maintain 37° C. temperature and atmosphere with 5% CO2. The next day, Leishmania parasites are isolated from the spleens of mice infected for 9-11 weeks and 4×10^5 isolated parasites in […] of the above media are added to each plate well. Plates are then returned into incubators and infection is allowed to proceed for 24 hours. After the infection of macrophages is completed, […] of compounds of the invention in the above medium, which also contains 5% DMSO, are added to plate wells containing infected macrophages. At the same time control compounds (miltefosine and amphotericin B) and DMSO are added to plates to serve as the positive and negative controls, respectively. After the compound addition, the plates are returned into incubator and cells infected with parasites are cultured for 5 days. At the end of cultivation, […] of 8% paraformaldehyde is added to plate wells and incubated for 15 min at room temperature. Following the incubation, the paraformaldehyde from plate wells is aspirated, and […] of PBS containing 0.2% Triton X-100 is added to wells. After 15 min incubation, the solution is aspirated from wells again, and replaced with SybrGreen Dye solution in PBS (1:125,000 dilution). Infected cells are imaged with Evotec Opera high-content microscope, and the number of parasites in well is determined by counting parasite nuclei visualized by staining with SybrGreen dye. The percentage inhibition of 50%, EC50, is calculated for each compound.
The inhibitory efficacy of the compounds of the invention against proliferation of L. donovani in mouse peritoneal macrophages is provided in Table I.

The subject of assay [2] is Leishmania donovani axenic amastigote parasites. In words: Assay for Leishmania proliferation in vitro (axenic amastigotes, Cell TiterGlo). The conditions noted are these: 48 h, 2 day incubation, read-out: L. donovani amastigotes EC50. On the procedure: Leishmania donovani axenic amastigote parasites are grown at 37° C., 5% CO2 in media made of RPMI 1640, 4 mM L-glutamine, 20% heat inactivated FBS, 100 units/ml of penicillin and 100 μg/ml of streptomycin, 23 μM Folic Acid, 100 μM Adenosine, 22 mM D-glucose, 25 mM MES. The pH of media is adjusted to 5.5 at 37° C. using HCl. 20 μL of media is first dispensed into 384 well plates and […] of the compounds of invention in DMSO are added to the plate wells. At the same time control compounds and DMSO are added to plates to serve as the positive and negative controls, respectively. 40 μL of parasite culture (9600 parasites) are then added to the plate wells. The plates are then placed into incubators. After 2 day incubation, 20 μL of Cell TiterGlo (Promega) is added to the plate wells. The luminescence signal of each well is measured using the Envision reader (Perkin Elmer). The percentage inhibition of 50%, EC50, is calculated for each of the compounds.
On the technique in general: Cellular ATP, detected with luciferase, serves as a proxy for viable cell number.

Assay [3] relates to Trypanosoma cruzi amastigotes cultured in 3T3 fibroblast cells. In words: Assay for proliferation of kinetoplastid parasite Trypanosoma cruzi (beta-galactosidase/CPRG readout). The conditions noted are these: NIH3T3, 144 h, Tulahuen strain in 3T3 cells, 6 day incubation, read-out: T cruzi EC50. An excerpt: Compounds of the invention can be assayed to measure their capacity to inhibit proliferation of kinetoplastid parasite Trypanosoma cruzi. The screening procedure is for identifying compounds with inhibitor activity against Trypanosoma cruzi amastigotes cultured in 3T3 fibroblast cells. The assay is done using the mammalian stage (amastigotes) of T. cruzi that replicates in the intracellular space of host cells. The host cells are initially infected with the culture-derived trypomastigotes that rapidly invade and then divide as amastigotes. The protocol uses the Tulahuen strain of T. cruzi that has been engineered to express the E. coli beta-galactosidase gene (Lac-Z) (Antimicr. Agents Chemoth. 40:2592, 1996). This allows for a colorimetric readout by using the substrate CPRG and an absorbance plate reader.
3T3 fibroblast cells are re-suspended in RPMI-1640 medium without phenol red medium supplemented with 10% FBS (heat inactivated), 100 μg/ml penicillin, and 100 μg/ml streptomycin. Forty μL of suspension (1,000 cells) is dispensed into 384-well plates and incubated overnight at 37° C. temperature and in atmosphere containing 5% CO2. The following day, 100 nL of compounds of the invention in DMSO are added to plate wells containing 3T3 cells. At the same time control compounds (benznidazole and nifurtimox) and DMSO are added to plates to serve as the positive and negative controls, respectively. After that, 10 μL of media containing 10,000 T. cruzi trypomastigotes are added to each plate well and plates are placed back into incubators. After 6 day incubation, 10 μL of reagent solution (0.6 mM CPRG, 0.6% NP-40 in PBS) is added to plates and incubated at room temperature for 2 hours. Absorbance is then measured on SpectraMax Gemini fluorimeter to determine relative number of T. cruzi cells present in each plate well. The percentage inhibition of 50%, EC50, is calculated for each compound.

Where only a bound is given, the exact number is not on record here.

As for `CC(C)OC(=O)Nc1cnc2nc(-c3cc(NC(=O)c4ccco4)ccc3Cl)n(C(=O)OC(C)C)c2c1` [Example 7, propan-2-yl 2-[2-chloro-5-(furan-2-amido)phenyl]-6-{[(propan-2-yloxy)carbonyl]amino}-1H-imidazo[4,5-b]pyridine-1-carboxylate], the EC50 in assay [1] was determined as 1.35 µM; in assay [2] it was 0.64 µM; in assay [3], 0.147 µM.
In the same order, the values of `CC(C)NC(=O)Nc1cnc2nc(-c3cc(NC(=O)c4ccco4)ccc3Cl)[nH]c2c1` [Example 24, N-[4-chloro-3-(6-{[(propan-2-yl)carbamoyl]amino}-1H-imidazo[4,5-b]pyridin-2-yl)phenyl]furan-2-carboxamide] are above 39.2 µM, 23.2 µM and above 20 µM.
The matching figures for `CS(=O)(=O)Nc1ccc(Cl)c(-c2nc3ncc(NS(C)(=O)=O)cc3[nH]2)c1` [Example 58, N-[2-(2-chloro-5-methanesulfonamidophenyl)-1H-imidazo[4,5-b]pyridin-6-yl]methanesulfonamide]: above 50 µM, above 25 µM and above 20 µM.
In the same order, the values of `Nc1cnc2nc(-c3cccc(NC(=O)c4ccc(F)o4)c3)[nH]c2c1` [Example 79, N-(3-{6-amino-1H-imidazo[4,5-b]pyridin-2-yl}phenyl)-5-fluorofuran-2-carboxamide] are 24.5 µM, above 25 µM and 1.46 µM.
As for `O=C(CCO)Nc1cnc2nc(-c3cc(NC(=O)c4ccco4)ccc3Cl)[nH]c2c1` [Example 25, N-{4-chloro-3-[6-(3-hydroxypropanamido)-1H-imidazo[4,5-b]pyridin-2-yl]phenyl}furan-2-carboxamide], the figures for the half-maximal effective concentration (EC50) in assay [1], in assay [2] and in assay [3] were above 50 µM, 23.2 µM and above 20 µM, respectively.
The matching figures for `CNc1cnc2nc(-c3cc(NC(=O)c4ccco4)ccc3Cl)[nH]c2c1` [Example 11, N-{4-chloro-3-[6-(methylamino)-1H-imidazo[4,5-b]pyridin-2-yl]phenyl}furan-2-carboxamide]: 16.6 µM, 1.84 µM and 1.27 µM.
In the same order, the values of `CN1CCC(C(=O)Nc2cnc3nc(-c4cc(NC(=O)c5ccco5)ccc4Cl)[nH]c3c2)CC1` [Example 36, N-{2-[2-chloro-5-(furan-2-amido)phenyl]-1H-imidazo[4,5-b]pyridin-6-yl}-1-methylpiperidine-4-carboxamide] are above 50 µM, above 25 µM and 19 µM.
In the same order, the values of `O=C(Nc1ccc(Cl)c(-c2nc3ncc(NC(=O)C4CC(F)C4)cc3[nH]2)c1)c1ccco1` (stereo not drawn) [Example 38, N-(4-chloro-3-{6-[(3-fluorocyclobutane)amido]-1H-imidazo[4,5-b]pyridin-2-yl}phenyl)furan-2-carboxamide] are 3.7 µM, 2.13 µM and 4.4 µM.
`CC1(C(=O)Nc2cnc3nc(-c4cc(NC(=O)c5ccco5)ccc4Cl)[nH]c3c2)COC1` [Example 43, N-{4-chloro-3-[6-(3-methyloxetane-3-amido)-1H-imidazo[4,5-b]pyridin-2-yl]phenyl}furan-2-carboxamide]: the results for the EC50 in assay [1], in assay [2] and in assay [3] were 47.4 µM, above 25 µM and above 20 µM, respectively.
